This note sets out measurements from patent US20210069249A1, “METHODS AND COMPOSITIONS OF CYTOTOXIC T CELL DEPLETION” (CRISPR THERAPEUTICS AG, priority 2018, published 2021).

One data set deals with exon 6 of the IL2RG gene. The data set can be described thus: On-target cleavage efficiency (INDEL, TIDES protocol) of IL2RG gRNAs. The note with it: primary human CD3+ T cells; one day post-editing; 3 independent experiments. Type of data set: cell-based.
The test system of data set [1] is off-target sites in primary human CD3+ cells. The data set can be described thus: GUIDE-seq off-target analysis of IL2RG gRNAs.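 For all read-outs here: Cas9 RNP plus double-stranded oligonucleotide nucleofected into CD3+ T cells, capture sites found by sequencing, sites also seen in RNP-free control cells discarded.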 Type of data set: cell-based. The note with it: for On-Target Read Count / on-target/off-target profile (GUIDE-seq) / GUIDE-seq Off-Targets / Present in Multiple Replicates: CD3+ T cells; for on-target/off-target profile (GUIDE-seq): multiple independent cell sample replicates; for GUIDE-seq Off-Targets: number of sites; for Present in Multiple Replicates: off-target sites found in at least 2 cell sample replicates.

The subject of data set [2] is primary human CD8+ or CD3+ T cells. The data set can be described thus: Cell viability and total cell counts after Cas9/gRNA RNP editing. Particulars: day two post-editing.
For data set [3], the system named is TCR and CD3 expression in CD8+ and CD3+ T cells. Put plainly: TCR and CD3 expression by flow cytometry after TRAC editing. Particulars: day seven post-editing. Type of data set: cell-based, human. For orientation: A flow cytometer gives signals particle by particle.
The subject of a further data set is TRAC gene. Put plainly: On-target cleavage efficiency (INDEL, TIDES protocol) of TRAC gRNAs. The note with it: day two post-editing, 2 independent experiments.

Regarding “GC1: sgRNA targeting IL2RG exon 6, spacer 5′-ACCAGTGCCTGGCATGTAGT-3′ (spacer only, sgRNA scaffold lacks entry, further chemistry not given here)”, in the data set with exon 6 of the IL2RG gene, the “Average INDEL Frequency (%)” value was 46.43%.

As to “GC3: sgRNA targeting IL2RG exon 6, spacer 5′-CAGTGCCTGGCATGTAGTAG-3′ (spacer only, sgRNA scaffold lacks entry, further chemistry not given here)”, the “Average INDEL Frequency (%)” value with exon 6 of the IL2RG gene is 77.53%.

For “GC9: sgRNA targeting IL2RG exon 6, spacer 5′-GTTATCTCTGTTGGCTCCAT-3′ (spacer only, sgRNA scaffold lacks entry, further chemistry not given here)”, the “Average INDEL Frequency (%)” value in the data set with exon 6 of the IL2RG gene is 31.37%.

Take “GC6: sgRNA targeting IL2RG exon 6, spacer 5′-CCTGTTTGCATTGGAAGCCG-3′ (spacer only, sgRNA scaffold lacks entry, further chemistry not given here)”: the “Average INDEL Frequency (%)” value in the data set on exon 6 of the IL2RG gene turned out to be 14.80%.

“GC15: sgRNA targeting IL2RG exon 6, spacer 5′-TTGTGCCCCTACTACATGCC-3′ (spacer only, sgRNA scaffold lacks entry, further chemistry not given here)”: in the data set on exon 6 of the IL2RG gene, the “Average INDEL Frequency (%)” value was 46.77%.

Consider “GC12: sgRNA targeting IL2RG exon 6, spacer 5′-CCACGGCTTCCAATGCAAAC-3′ (spacer only, sgRNA scaffold lacks entry, further chemistry not given here)”, for which the “Average INDEL Frequency (%)” value in the data set on exon 6 of the IL2RG gene is 58.43%. In addition, in data set [1], the “On-Target Read Count” value came to 2352, the “on-target/off-target profile (GUIDE-seq)” value is “generally favorable”, the “GUIDE-seq Off-Targets” value is reported as 1368 and the “Present in Multiple Replicates” value was 4. The substance further came in with an Off-Target/On-Target in data set [1] (site chr13 18212170, Intronic, FAM230C) of 1.02%. Also, the Off-Target/On-Target in data set [1] (site chrUn_KI270467v1 2459) was 0.77%. The same substance came in with an Off-Target/On-Target in data set [1] (site chrUn_KI270467v1 2660) of 0.34%. In data set [1] (site chrUn_KI270590v1 2621), this substance displayed an Off-Target/On-Target of 0.38%.

Take “GC13: sgRNA targeting IL2RG exon 6, spacer 5′-GCTTCCAATGCAAACAGGAA-3′ (spacer only, sgRNA scaffold lacks entry, further chemistry not given here)”: the “Average INDEL Frequency (%)” value with exon 6 of the IL2RG gene is 35.60%.

Turning to “GC5: sgRNA targeting IL2RG exon 6, spacer 5′-GAATCCTTTCCTGTTTGCAT-3′ (spacer only, sgRNA scaffold lacks entry, further chemistry not given here)”, the “Average INDEL Frequency (%)” value in the data set on exon 6 of the IL2RG gene is reported as 13.03%.

With “TRAC 2: sgRNA targeting TRAC, spacer 5′-AGAGCAACAGTGCTGTGGCC-3′ (spacer only; sgRNA scaffold lacks entry; TRAC gRNA spacer, TRAC 2)”, the “Cell Viability (%)” value was determined as 80% in data set [2] (CD3+ T cells) and 88.5% in data set [2] (CD8+ T cells).

Take “GC10: sgRNA targeting IL2RG exon 6, spacer 5′-AAGGCTGATAATCAATCCCA-3′ (spacer only, sgRNA scaffold lacks entry, further chemistry not given here)”: the “Average INDEL Frequency (%)” value in the data set on exon 6 of the IL2RG gene was found to be 71.77%. Further, the “On-Target Read Count” value in data set [1] was found to be 5384. Besides, the “on-target/off-target profile (GUIDE-seq)” value in data set [1] is on record as “generally favorable”. The “GUIDE-seq Off-Targets” value in data set [1] stood at 1227. The “Present in Multiple Replicates” value in data set [1] was 14. The Off-Target/On-Target in data set [1] (site chr3 108840645, Intronic, TRAT1) amounted to 3.05%; in data set [1] (site chr5 159185831, Intronic, RNF145) it was 0.20%; in data set [1] (site chr12 62289934, Intronic, USP15) it was 0.48%; in data set [1] (site chr21 17142630, Intergenic), 0.71%; in data set [1] (site chrUn_KI270438v1 104161), 1.60%; in data set [1] (site chrUn_KI270438v1 104938), 0.28%. Besides, the Off-Target/On-Target in data set [1] (site chrUn_KI270438v1 109447) came out at 0.39%; in data set [1] (site chrUn_KI270467v1 2297), 0.17%; in data set [1] (site chrUn_KI270467v1 2459), 0.17%; in data set [1] (site chrUn_KI270467v1 2622), 0.48%; in data set [1] (site chrUn_KI270467v1 2830), 0.13%; in data set [1] (site chrUn_KI270467v1 3365) it was 0.26%.

Regarding “GC14: sgRNA targeting IL2RG exon 6, spacer 5′-TAGAAAAAAGAAAAGCAAAG-3′ (spacer only, sgRNA scaffold lacks entry, further chemistry not given here)”, in the data set on exon 6 of the IL2RG gene, the “Average INDEL Frequency (%)” value is recorded as 28.23%.

For the substance “GC11: sgRNA targeting IL2RG exon 6, spacer 5′-GGAGCCAACAGAGATAACCA-3′ (spacer only, sgRNA scaffold lacks entry, further chemistry not given here)”, the “Average INDEL Frequency (%)” value in the data set on exon 6 of the IL2RG gene was 15.60%.

Turning to “GC2: sgRNA targeting IL2RG exon 6, spacer 5′-CCAGTGCCTGGCATGTAGTA-3′ (spacer only, sgRNA scaffold lacks entry, further chemistry not given here)”, the “Average INDEL Frequency (%)” value in the data set with exon 6 of the IL2RG gene is listed as 74.67%.

Take “TRAC 2: sgRNA targeting TRAC, spacer 5′-AGAGCAACAGTGCTGTGGCC-3′ (spacer only, sgRNA scaffold lacks entry, chemistry not fully specified)”: the figures for the “CD3+ cells (%)” value in data set [3] (CD3+ T cells) and in data set [3] (CD8+ T cells) were 43.17% and 24.34%, respectively. In addition, the “TCR+ cells (%)” value in data set [3] (CD3+ T cells) is 8.63%; in data set [3] (CD8+ T cells) it was 8.1%. In addition, the Cell count in data set [2] (CD3+ T cells) is 7.77E+05; in data set [2] (CD8+ T cells), 7.84E+05. For the same substance, the “INDEL Frequency (%)” value with TRAC gene (CD3+ T cells) was determined as 53.85%; in the data set with TRAC gene (CD8+ T cells), 59.5%.

Turning to “GC8: sgRNA targeting IL2RG exon 6, spacer 5′-GGTTATCTCTGTTGGCTCCA-3′ (spacer only, sgRNA scaffold lacks entry, further chemistry not given here)”, the “Average INDEL Frequency (%)” value in the data set on exon 6 of the IL2RG gene stood at 66.40%. In data set [1], the “On-Target Read Count” value is 4348, the “on-target/off-target profile (GUIDE-seq)” value was “generally favorable”, the “GUIDE-seq Off-Targets” value is 930 and the “Present in Multiple Replicates” value is listed as 3. The substance further had an Off-Target/On-Target in data set [1] (site chr1 125180094, Intergenic) of 1.54%. The Off-Target/On-Target in data set [1] (site chr16 46390807, Intergenic) was 0.14%. The Off-Target/On-Target in data set [1] (site chr16 46399022, Intergenic) worked out at 0.46%.

“GC4: sgRNA targeting IL2RG exon 6, spacer 5′-GTAGGGGCACAACAAATATA-3′ (spacer only, sgRNA scaffold lacks entry, further chemistry not given here)”: the “Average INDEL Frequency (%)” value in the data set on exon 6 of the IL2RG gene is on record as 41.07%.

Regarding “GC7: sgRNA targeting IL2RG exon 6, spacer 5′-GAAGCCGTGGTTATCTCTGT-3′ (spacer only, sgRNA scaffold lacks entry, further chemistry not given here)”, the “Average INDEL Frequency (%)” value in the data set on exon 6 of the IL2RG gene was 31.07%.
